Test results taken from article PMC12501029, “Discovery of a CNS active GSK3 degrader using orthogonally reactive linker screening” (Nature Communications, 2025).
Entries after “also recorded” stand apart in the source; their conditions may differ. Where two headings read alike, the source gives them in different places.

How the values were obtained:
[1] = Discrete i.v./p.o. KH1 (24) PK study and brain penetration; type: in vivo, female Balb/c mice
Text: Fifteen female mice of the Balb/c strain were obtained from Charles River Laboratories, UK. Animals were maintained under a 12-h light/12-h dark cycle, in Thoren mouse caging containing EC0 aspen bedding (DBM, UK), with 'Sizzlenest' and 'Rodent Rolls' nesting material (DBM). Enrichment materials included aspen chew sticks, cardboard houses, tunnels, swings, and sunflower seeds. All animals had ad libitum access to food (5LF2 Extruded Diet, IPS Ltd, UK) and tap water throughout. Temperature and relative humidity were maintained between 19 °C–24 °C and 45%–65%, respectively. All animals received a minimum of 10 days of acclimatisation prior to the start of the study.
The intravenous formulations for KH1 (24) were prepared by dissolving the compound in DMSO. This was then diluted with PEG400, followed by dropwise addition of sterile water to form a complete solution. The resulting formulations consisted of 5% DMSO, 40% PEG400, and 55% water, and contained KH1 (24) at a concentration of 0.1 mg/mL (for the PK study), or 1.0 mg/mL (for the PK/PD study), respectively.
The oral formulation for KH1 (24) was produced by vigorously mixing the compound with a sterile solution containing 0.5% hydroxypropylmethylcellulose in water, until a fine homogenous suspension was formed. The resulting formulation contained KH1 (24) at a concentration of 0.6 mg/mL. Dose formulations were prepared on the day of dosing, and animals were observed regularly after dose administration.
[…] Serial blood samples (10 µL per sample) were collected from the lateral tail vein of three intravenously-dosed mice and three orally-dosed mice at 5, 15 and 30 min, 1, 2, 4, 6, 8, and 24 h after dose administration. Blood samples were diluted into 90 µL of Milli‑Q ultrapure water. The remaining three intravenously-dosed animals were placed under terminal anaesthesia with isoflurane, 2 h after bolus administration. Blood was collected via cardiac puncture and the brains were removed. Two aliquots of 10 µL blood were each diluted into 90 µL of Milli-Q ultrapure water. All blood samples were stored at −20 °C prior to bioanalysis. The concentration of KH1 (24) in blood and brain was determined by UPLC-MS/MS.
Blood samples (10 µL) from study mice were diluted 1× with 90 µL of water immediately when the sample was taken. All calibration, quality control, blanks and double blank samples (all 100 µL volume) were mixed (vortexed) with 300 µL of LCMS grade acetonitrile to precipitate proteins.
For study samples, a volume (30 µL) was mixed (vortexed) with a volume (90 µL) of acetonitrile to precipitate proteins. After protein precipitation, all samples were centrifuged to pellet the proteins. Study samples in Micronics tubes were centrifuged using a Beckman Coutler Allegra C-12R Centrifuge for 10 min at 3750 rpm. All other samples in Eppendorf tubes were centrifuged using a Sigma SciQuip 1–14 centrifuge for 10 min (14,800 rpm/16,163 × g). Supernatant from study samples (80 µL) and calibration samples, QCs, blanks, and double blanks (200 µL) were then transferred to HPLC glass vials containing Milli-Q water (40 µL or 100 µL, respectively), ready for LCMS analysis.

GSK3β = target: T1, GSK3β (Mus musculus, UniProt Q9WV60); test: KH1 (24) intravenous PK/PD study: GSK3β abundance in liver and brain (immunoblot); type: in vivo, female Balb/c mice; details: single 5 mg/kg i.v., 4 h, listed as KH1 (24)
T1 construct: measured KH1 (24) levels in plasma and brain at 4 h, as well as GSK3β abundance in liver and brain; tissue Charles River Laboratories, UK; host or cells: liver and brain of female Balb/c mice
Description: A fraction of frozen brain and liver samples from control (CNT) and compound KH1 (24) treated animals were-transferred into Precellys 2 mL ceramic bead tubes containing 1 mL SDS lysis buffer (50 mM Tris-HCl pH 7.4, 150 mM NaCl, 1 mM EGTA, 270 mM sucrose, 1% (v/v) Triton-X100) supplemented with complete EDTA-free protease inhibitor cocktail (Roche) and PhosSTOP phosphatase inhibitor tablets (Roche) and placed immediately on ice. Then samples were placed in Precellys Evolution tissue homogeniser (Bertin Technologies) and tissues were lysed at 0 °C for 3 × 30 s of cycles at 6800 rpm, with 30 s pause in between cycles. Samples were centrifugated at 4 °C, 2000 × g for 60 s to get rid of bubbles and supernatant was transferred into new tubes. Lysates were cleared via centrifugation at 16,000 × g, 4 °C for 20 min. Protein concentration was determined by BCA assay (Thermo Scientific) and immunoblotting performed as previously described above. Immunoblots were quantified using ImageLab (Bio-Rad) and band intensities were normalised to loading controls; anti-GAPDH or Ponceau S staining and fold changes for protein of interest were plotted.
For the PK/PD study for KH1 (24), three female Balb/c mice were given a bolus intravenous injection at a dose level of 5 mg/kg (5 mL/kg). […] The concentration of KH1 (24) in whole blood and brain tissue was determined via UPLC-MS/MS.

[2] = test system: GSK3β-HiBiT KI HEK293 cells; test: Multiplexed degradation and cell viability assay (Gly-Phe-AFC fluorescence); type: cell-based, human; details: up to 24 h and 1 μM (10 nM, 100 nM, 1 µM; 2, 4, 24 h)
Description: For viability tests, GSK3β-HiBiT KI HEK293 cells were seeded onto white-opaque 96-well plates at a density of 2 × 10^4 cells per well. After 16 h, cells were treated with test compounds or DMSO with indicated concentrations for 2, 4 and 24 h. Thirty minutes before the end of treatment, 20 µL of reaction buffer containing Gly-Phe-A FC substrate (1:200 in cell culture media, Chem Cruz, sc506265) added to the each well and cells were returned to cell culture incubator. At the end of the treatment time, HiBiT lytic reagents were prepared according to the manufacturer's instructions (Promega) and 120 µL of reagent dispensed to each well. Fluorescence (viability) and luminescence (degradation) signals were measured by GloMAX discover plate reader (Promega) at the same time. Obtained data analysed using Excel and GraphPad Prism (v10.1.2) as previously described above.

[3] = female, Balb/c, mouse, whole blood, Oral, 3 mg/kg

T1 sequence (Q9WV60 whole entry): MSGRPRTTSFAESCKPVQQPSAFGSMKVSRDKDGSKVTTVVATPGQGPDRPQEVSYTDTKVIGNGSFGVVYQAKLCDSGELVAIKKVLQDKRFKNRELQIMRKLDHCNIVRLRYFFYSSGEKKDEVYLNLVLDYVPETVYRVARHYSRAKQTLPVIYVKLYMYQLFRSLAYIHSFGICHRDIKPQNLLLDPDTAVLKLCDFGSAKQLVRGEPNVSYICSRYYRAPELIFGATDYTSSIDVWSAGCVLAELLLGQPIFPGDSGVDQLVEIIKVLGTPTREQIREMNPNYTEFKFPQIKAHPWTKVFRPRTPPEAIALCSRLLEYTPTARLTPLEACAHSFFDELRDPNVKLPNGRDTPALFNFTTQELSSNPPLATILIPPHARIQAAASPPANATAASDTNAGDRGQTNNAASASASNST

## Cn1nc(N2CCC(=O)NC2=O)c2ccc(CN3CCN(Cc4ccc(-c5cn(-c6ccc(-c7cn8nccc(C(=O)Nc9cnccc9N9CCOCC9)c8n7)cc6)nn5)nc4)CC3)cc21 [compound 24]
[1]; IV, 0.37 mg/kg
  Half_Life: 2.3 h
  Vss_obs: 2.0 L/kg
[1]; female, Balb/c, mouse, brain (unbound), intravenous, 0.37 mg/kg, predicted from brain concentration and measured free fraction, read-out: free concentration in brain
  concentration at 2 h: 0.02 nM
[1]; female, Balb/c, mouse, brain / plasma (unbound), iv, 0.37 mg/kg i.v., 2 h, read-out: estimated Kp,uu
  Kp uu at 2 h: 0.05
[1]; female, Balb/c, mouse, brain / whole blood, intravenous, 0.37 mg/kg i.v., 2 hours, read-out: Brain:Blood Ratio
  Kp at 2 h: 0.18
[1]; female, Balb/c, mouse, brain, intravenous, 0.37 mg/kg i.v., 2 hours, read-out: Mean Brain Concentration
  concentration at 2 h: 16 nM
[1]; female, Balb/c, mouse, plasma (unbound), intravenous, 2 h, 0.37 mg/kg, using predicted free fractions, read-out: unbound total plasma concentration
  concentration at 2 h: 0.4 to 0.9 nM
[1]; female, Balb/c, mouse, whole blood, intravenous, 0.37 mg/kg i.v., 2 hours, read-out: Mean Blood Concentration
  concentration at 2 h: 88 nM
[1]; female, Balb/c, mouse, whole blood, iv, 0.37 mg/kg
  AUC(0-t): 572 ng·h/mL
[1]; female, Balb/c, mouse, whole blood, iv, 0.37 mg/kg, read-out: Cl_obs
  clearance: 10 mL/min/kg
[1]; [3]
  AUC(0-t): 82.2 ng·h/mL
  Cmax: 19 ng/mL
  Tmax: 2 h
[1]; female, Balb/c, mouse, whole blood, Oral, 3 mg/kg, read-out: F (oral bioavailability)
  bioavailability: 1.6%
[1]; for up to 4 h following i.v. dosing at 0.37 mg/kg
  total mean plasma concentration: above 65 nM
GSK3β; p < 0.0001 vs control
  GSK3β abundance in liver: almost complete removal of GSK3β; also recorded: almost completely remove GSK3β
GSK3β; p = 0.0159 vs control
  GSK3β abundance in brain: significant degradation of GSK3β; also recorded: partial degradation
[2]
  impact on cell viability: no impact on cell viability
